System: yeast genes (level of expressed mRNA)
Test: DNA chip analysis of expressed mRNA of yeast genes after 2 h culture with a toxic chemical substance
Assay type: cell-based, Saccharomyces cerevisiae S288C
Conditions: for The level of expressed mRNA in the presence of chemical substance/ (ratio to absence of chemical substance): stress protein genes, DNA chip; for The level of expressed mRNA in the presence of chemical substance/ in its absence, gene YPR184W: yeast gene YPR184W
Experimental: Yeast (Saccharomyces cerevtisiae S288C (α SUC2mal mel gap2 CUP1)) were cultured at 25° C. on YPD medium (yeast extract 1%, polypepton 2%, glucose 2%). One of toxic chemical substances was added to the cell at logarithmic growth phase, and the cell was further cultured for two hours. Cell was cultured without any chemical substance in the same condition, and was used as control. Concentrations of the chemical substances were defined to inhibit the growth of the yeast but not lead to death.
After the completion of cultivation, the culture was centrifuged to collect the cells. To the cells, sodium acetate buffer (50 mM sodium acetate, 10 mM EDTA, 1% SDS) was added, and the mixture was shaken at 65° C. for five minutes, followed by returning to room temperature, and obtaining the supernatant, which procedure was repeated two times. To the supernatant, ½ amount of a solution of phenol/chloroform was added, and the mixture was centrifuged to give a supernatant, which was added with an equal amount of chloroform, and the mixture was centrifuged to give a supernatant. To the supernatant, an equal amount of isopropanol containing 0.3 M sodium acetate was added, and the mixture was allowed to stand at room temperature for 30 minutes, after which the mixture was centrifuged to give a sediment of the whole RNAs. Seventy % ethanol was added to the sediment, and the mixture was again centrifuged to give a sediment, which was then dried and dissolved in water. mRNA was isolated from the whole RNAs as followings. In view of the fact that a poly A chain is attached to the 3′ terminus of mRNA, a polynucleotide having a poly T structure which was immobilized on the surface of latex beads was used to trap the mRNA, and then the mRNA was washed and eluted with spine column (Oligotex-dT30<Super>mRNA Purification Kit, Takara). Reverse transcription of the mRNA was conducted with a reverse transcriptase (Super Script II Reverse Transcriptase; catalogue No. 18064-014, GibcoBRL) using fluorescence-labeled nucleotides to give cDNAs that were introduced with Cy3-dUTP or Cy5-dUTP during the reverse transcription.
The labeled cDNAs were dissolved in TE buffer (10 mM Tris-HCl/1 mM EDTA, pH8.0), and the solution was dropped on the DNA chip containing the whole genes of yeast (DNA Chip Research Inc. Japan) so that the cDNAs were hybridized on the DNA chip at 65° C. for over 12 hours. The fluoresces intensity of the DNA chip was read with a scanner, and the ratio relative to the fluorescence intensity resulting from the absence of chemical substance was estimated as the following, which is shown in Tables 1 to 9: [formula]
In the Tables, “Intensity” indicated in the rightmost column is a value of the level of expressed mRNA of each gene in control cells as divided by the average level of the expressions of the whole genes.

Q: With `S=C([S-])NCCNC(=S)[S-].[Zn+2]` [(11), zinc N,N′-ethylenebis(dithiocarbamate)] as the compound, how does the “The level of expressed mRNA in the presence of chemical substance/ (in its absence), gene YMR293C” value (yeast gene YMR293C, ratio of DNA chip fluorescence intensity to that without chemical substance) read?
A: 0.4

Q: And the “The level of expressed mRNA in the presence of chemical substance/The level of expressed mRNA in the absence of chemical substance” value (yeast gene YMR314W)?
A: 1.8

Q: And the “The level of expressed mRNA in the presence of chemical substance/The level of expressed mRNA in the absence of chemical substance” value (yeast gene YNL006W)?
A: 1.1

Q: And the “The level of expressed mRNA in the presence of chemical substance/The level of expressed mRNA in the absence of chemical substance” value (yeast gene YNL007C)?
A: 1.3

Q: And the “The level of expressed mRNA in the presence of chemical substance/ (in its absence), gene YNL025C” value (yeast gene YNL025C, ratio of DNA chip fluorescence intensity to that without chemical substance)?
A: 1.1

Q: And the “The level of expressed mRNA in the presence of chemical substance/ (ratio to absence of chemical substance)” value (yeast gene YNL064C)?
A: 0.9

Q: And the “The level of expressed mRNA in the presence of chemical substance/ (ratio to absence), gene YNL073W” value (yeast gene YNL073W, mitochondria-located protein genes, 2 h culture with chemical)?
A: 1.1

Q: And the “The level of expressed mRNA in the presence of chemical substance/The level of expressed mRNA in the absence of chemical substance” value (yeast gene YNL093W)?
A: 1.6

Q: And the “The level of expressed mRNA in the presence of chemical substance/ (in its absence), gene YNL192W” value (yeast gene YNL192W, ratio of DNA chip fluorescence intensity to that without chemical substance)?
A: 1.1

Q: What about the “The level of expressed mRNA in the presence of chemical substance/The level of expressed mRNA in the absence of chemical substance” value (yeast gene YNL333W) of the same compound?
A: 2.0

Q: What about the “The level of expressed mRNA in the presence of chemical substance/The level of expressed mRNA in the absence of chemical substance” value (yeast gene YNR010W) of the same compound?
A: 1.4

Q: What about the “The level of expressed mRNA in the presence of chemical substance/The level of expressed mRNA in the absence of chemical substance” value (yeast gene YNR069C) of the same compound?
A: 2.5

Q: And the “The level of expressed mRNA in the presence of chemical substance/ (in its absence), gene YNR072W” value (yeast gene YNR072W, ratio of DNA chip fluorescence intensity to that without chemical substance)?
A: 1.4

Q: What about the “The level of expressed mRNA in the presence of chemical substance/ (ratio to absence of chemical substance)” value (yeast gene YNR076W) of the same compound?
A: 1.4

Q: And the “The level of expressed mRNA in the presence of chemical substance/The level of expressed mRNA in the absence of chemical substance” value (yeast gene YOL013C)?
A: 1.4

Q: What about the “The level of expressed mRNA in the presence of chemical substance/ (ratio to absence), gene YOL096C” value (yeast gene YOL096C, mitochondria-located protein genes, 2 h culture with chemical) of the same compound?
A: 1.2

Q: And the “The level of expressed mRNA in the presence of chemical substance/ (in its absence), gene YOL096C” value (yeast gene YOL096C, ratio of DNA chip fluorescence intensity to that without chemical substance)?
A: 1.2

Q: What about the “The level of expressed mRNA in the presence of chemical substance/ (in its absence), gene YOL108C” value (yeast gene YOL108C, ratio of DNA chip fluorescence intensity to that without chemical substance) of the same compound?
A: 1.1

Q: What about the “The level of expressed mRNA in the presence of chemical substance/ (in its absence), gene YOL116W” value (yeast gene YOL116W, ratio of DNA chip fluorescence intensity to that without chemical substance) of the same compound?
A: 1.0

Q: What about the “The level of expressed mRNA in the presence of chemical substance/ (ratio to absence of chemical substance)” value (yeast gene YOL161C) of the same compound?
A: 1.5

Q: What about the “The level of expressed mRNA in the presence of chemical substance/The level of expressed mRNA in the absence of chemical substance” value (yeast gene YOL164W) of the same compound?
A: 1.0

Q: What about the “The level of expressed mRNA in the presence of chemical substance/ (ratio to absence of chemical substance)” value (yeast gene YOR008C) of the same compound?
A: 1.0

Q: What about the “The level of expressed mRNA in the presence of chemical substance/ (ratio to absence of chemical substance)” value (yeast gene YOR009W) of the same compound?
A: 1.4

Q: And the “The level of expressed mRNA in the presence of chemical substance/ (ratio to absence of chemical substance)” value (yeast gene YOR010C)?
A: 1.2

Q: What about the “The level of expressed mRNA in the presence of chemical substance/The level of expressed mRNA in the absence of chemical substance” value (yeast gene YOR036W) of the same compound?
A: 1.3

Q: And the “The level of expressed mRNA in the presence of chemical substance/ (in its absence), gene YOR103C” value (yeast gene YOR103C, ratio of DNA chip fluorescence intensity to that without chemical substance)?
A: 1.0

Q: What about the “The level of expressed mRNA in the presence of chemical substance/The level of expressed mRNA in the absence of chemical substance” value (yeast gene YOR117W) of the same compound?
A: 1.2

Q: And the “The level of expressed mRNA in the presence of chemical substance/The level of expressed mRNA in the absence of chemical substance” value (yeast gene YOR124C)?
A: 1.2

Q: And the “The level of expressed mRNA in the presence of chemical substance/The level of expressed mRNA in the absence of chemical substance” value (yeast gene YOR132W)?
A: 1.3

Q: And the “The level of expressed mRNA in the presence of chemical substance/The level of expressed mRNA in the absence of chemical substance” value (yeast gene YOR157C)?
A: 1.6

Q: And the “The level of expressed mRNA in the presence of chemical substance/ (in its absence), gene YOR180C” value (yeast gene YOR180C, ratio of DNA chip fluorescence intensity to that without chemical substance)?
A: 0.6

Q: What about the “The level of expressed mRNA in the presence of chemical substance/The level of expressed mRNA in the absence of chemical substance” value (yeast gene YOR181W) of the same compound?
A: 1.0

Q: What about the “The level of expressed mRNA in the presence of chemical substance/The level of expressed mRNA in the absence of chemical substance” value (yeast gene YOR185C) of the same compound?
A: 1.2

Q: What about the “The level of expressed mRNA in the presence of chemical substance/The level of expressed mRNA in the absence of chemical substance” value (yeast gene YOR198C) of the same compound?
A: 1.4

Q: What about the “The level of expressed mRNA in the presence of chemical substance/ (in its absence), gene YOR251C” value (yeast gene YOR251C, ratio of DNA chip fluorescence intensity to that without chemical substance) of the same compound?
A: 1.0

Q: What about the “The level of expressed mRNA in the presence of chemical substance/The level of expressed mRNA in the absence of chemical substance” value (yeast gene YOR259C) of the same compound?
A: 1.0

Q: And the “The level of expressed mRNA in the presence of chemical substance/The level of expressed mRNA in the absence of chemical substance” value (yeast gene YOR261C)?
A: 2.1

Q: What about the “The level of expressed mRNA in the presence of chemical substance/The level of expressed mRNA in the absence of chemical substance” value (yeast gene YOR288C) of the same compound?
A: 1.4

Q: And the “The level of expressed mRNA in the presence of chemical substance/ (ratio to absence), gene YOR316C” value (yeast gene YOR316C, mitochondria-located protein genes, 2 h culture with chemical)?
A: 2.4

Q: What about the “The level of expressed mRNA in the presence of chemical substance/ (in its absence), gene YOR348C” value (yeast gene YOR348C, ratio of DNA chip fluorescence intensity to that without chemical substance) of the same compound?
A: 1.1

Q: What about the “The level of expressed mRNA in the presence of chemical substance/The level of expressed mRNA in the absence of chemical substance” value (yeast gene YOR355W) of the same compound?
A: 1.2

Q: What about the “The level of expressed mRNA in the presence of chemical substance/ (in its absence), gene YOR363C” value (yeast gene YOR363C, ratio of DNA chip fluorescence intensity to that without chemical substance) of the same compound?
A: 1.2

Q: What about the “The level of expressed mRNA in the presence of chemical substance/The level of expressed mRNA in the absence of chemical substance” value (yeast gene YOR383C) of the same compound?
A: 1.4

Q: What about the “The level of expressed mRNA in the presence of chemical substance/ (ratio to absence), gene YPL040C” value (yeast gene YPL040C, mitochondria-located protein genes, 2 h culture with chemical) of the same compound?
A: 0.9

Q: What about the “The level of expressed mRNA in the presence of chemical substance/ (ratio to absence of chemical substance)” value (yeast gene YPL059W) of the same compound?
A: 1.6

Q: And the “The level of expressed mRNA in the presence of chemical substance/The level of expressed mRNA in the absence of chemical substance” value (yeast gene YPL089C)?
A: 0.9

Q: And the “The level of expressed mRNA in the presence of chemical substance/ (ratio to absence), gene YPL134C” value (yeast gene YPL134C, mitochondria-located protein genes, 2 h culture with chemical)?
A: 1.7

Q: And the “The level of expressed mRNA in the presence of chemical substance/ (ratio to absence of chemical substance)” value (yeast gene YPL140C)?
A: 0.8

Q: What about the “The level of expressed mRNA in the presence of chemical substance/ (in its absence), gene YPL148C” value (yeast gene YPL148C, ratio of DNA chip fluorescence intensity to that without chemical substance) of the same compound?
A: 3.5

Q: And the “The level of expressed mRNA in the presence of chemical substance/The level of expressed mRNA in the absence of chemical substance” value (yeast gene YPL149W)?
A: 1.2

Q: And the “The level of expressed mRNA in the presence of chemical substance/The level of expressed mRNA in the absence of chemical substance” value (yeast gene YPL154C)?
A: 1.8

Q: And the “The level of expressed mRNA in the presence of chemical substance/ (ratio to absence of chemical substance)” value (yeast gene YPL194W)?
A: 0.9

Q: What about the “The level of expressed mRNA in the presence of chemical substance/ (ratio to absence of chemical substance)” value (yeast gene YPR005C) of the same compound?
A: 0.4

Q: And the “The level of expressed mRNA in the presence of chemical substance/The level of expressed mRNA in the absence of chemical substance” value (yeast gene YPR103W)?
A: 0.9

Q: What about the “The level of expressed mRNA in the presence of chemical substance/The level of expressed mRNA in the absence of chemical substance” value (yeast gene YPR108W) of the same compound?
A: 1.8

Q: And the “The level of expressed mRNA in the presence of chemical substance/ (in its absence), gene YPR165W” value (yeast gene YPR165W, ratio of DNA chip fluorescence intensity to that without chemical substance)?
A: 1.0

Q: What about the “The level of expressed mRNA in the presence of chemical substance/ in its absence, gene YPR184W” value (energy system protein genes, 2 h culture with the chemical, ratio to control without chemical) of the same compound?
A: 3.6

Q: And the “The level of expressed mRNA in the presence of chemical substance/ in its absence, gene YPR184W” value (ratio of DNA chip fluorescence intensity to that without chemical substance)?
A: 3.6
